Patent US6169181A, “Compounds useful to treat retroviral infections” (Pharmacia & Upjohn Company, priority 1998, dated 2001)
Where “and” joins values, the source holds several entries; their conditions need not be identical. Identical values can stand only once. Like-named read-outs stand apart in the source and are kept apart here.

Assays:
[1] = target: T1, HIV-1 protease (Human immunodeficiency virus type 1 group M subtype B, UniProt P04585); experiment: biochemical
Method in brief: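 Biotinylated, FITC-labelled peptide substrate cleaved in 0.1 M sodium acetate pH 5.5, 1.0 M NaCl, 0.05% NP-40, room temperature. Filtered labelled product read by fluorescence; nonlinear least-squares fit.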

[2] = target: T1, HIV-1 protease; experiment: biochemical; conditions: for inhibition at 0.123 µM / inhibition at 0.37 µM / inhibition at 1.1 µM / inhibition at 3.3 µM / inhibition at 10 µM / inhibition at 30 µM: read-out: Protease % Inhib
Method in brief: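 A substrate biotinylated at the N-terminal arginine and FITC-labelled at the C-terminal lysine was incubated with HIV-1 protease (10 μl of 0.1 μM) and compound for 1 h in the dark at room temperature. Buffer was 0.1 M sodium acetate pH 5.5, 1.0 M NaCl, 0.05% NP-40. Labelled product was separated from substrate using streptavidin beads and filtration, and the fluorescence gave percent inhibition.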

[3] = Table I, read-out: HIV Protease FITC Assay Ki

SMILES	inhibition at 0.123 µM ([2]; Table I, Dose 0.123 μM) [%]	inhibition at 0.37 µM ([2]; Table I, Dose 0.370 μM) [%]	inhibition at 1.1 µM ([2]; Table I, Dose 1.100 μM) [%]	inhibition at 3.3 µM ([2]; Table I, Dose 3.300 μM) [%]	inhibition at 10 µM ([2]; Table I, Dose 10.000 μM) [%]	inhibition at 30 µM ([2]; Table I, Dose 30.000 μM) [%]	Ki [1, 3]	also measured
CC[C@H](Cc1ccccc1)c1cc(O)c(C(c2cccc(NS(=O)(=O)c3ncc[nH]3)c2)C2CC2)c(=O)o1 (stereo partly drawn) [Example 147, N-(3-{Cyclopropyl-[6-(1-(R)-ethylphenethyl)-4-hydroxy-2-oxo-2H-pyran-3-yl]-methyl}-phenyl)-1H-imidazole-2-sulfonamide]	77.5	103	112	110	114	108	–	Ki ([1]; read-out: HIV Protease FITC Assay Ki): 1 nM
CCC[C@]1(CCc2ccc(F)cc2)CC(O)=C([C@H](c2cccc(NS(=O)(=O)c3cn(C)cn3)c2)C(C)(C)C)C(=O)O1 (single isomer, unassigned) [Example 352, N-[3-{1(S or R)-(4-Hydroxy-5,6-dihydro-2-oxo-6(S or R)-(2-(4-fluorophenyl)ethyl)-6-propyl-2H-pyran-3-yl)-2,2-dimethyl-propyl}phenyl]-1-methyl-1H-imidazole-4-sulfonamide]	–	–	–	–	–	–	–	Ki ([1]; Table II, enzyme HIV-1, read-out: FITC KI): 168 nM; PROTEASE % INHIB. ([2]; Table II, enzyme HIV-1, DOSE 0.123 (unit not given)): < 10%; PROTEASE % INHIB. ([2]; Table II, enzyme HIV-1, DOSE 0.370 (unit not given)): 25.31%; PROTEASE % INHIB. ([2]; Table II, enzyme HIV-1, DOSE 1.100 (unit not given)): 47.78%; PROTEASE % INHIB. ([2]; Table II, enzyme HIV-1, DOSE 3.300 (unit not given)): 74.99%; PROTEASE % INHIB. ([2]; Table II, enzyme HIV-1, DOSE 10.000 (unit not given)): 85.86%; PROTEASE % INHIB. ([2]; Table II, enzyme HIV-1, DOSE 30.000 (unit not given)): 87.82%
CCCC1(CCC)CC(O)=C(C(c2cccc(NS(=O)(=O)c3cn(C)cn3)c2)C2CC2)C(=O)O1 (single isomer, unassigned) [Example 57]	–	–	–	–	–	–	0.36 nM	PROTEASE % INHIB. ([2]; Table I, Dose 0.123 μM): 99.07%; PROTEASE % INHIB. ([2]; Table I, Dose 0.370 μM): 105.17%; PROTEASE % INHIB. ([2]; Table I, Dose 1.100 μM): 110.68%; PROTEASE % INHIB. ([2]; Table I, Dose 3.300 μM): 97.8%; PROTEASE % INHIB. ([2]; Table I, Dose 10.000 μM): 104.74%; PROTEASE % INHIB. ([2]; Table I, Dose 30.000 μM): 115.02%
CC[C@H](Cc1ccccc1)c1cc(O)c(C(c2cccc(NS(=O)(=O)c3cn(C)cn3)c2)C2CC2)c(=O)o1 (single isomer, unassigned) [Example 137, N-(3-(R or S)-{Cyclopropyl-[6-(1-(R)-ethylphenethyl)-4-hydroxy-2-oxo-2H-pyran-3-yl]-methyl}-phenyl)-1-methyl-1H-imidazole-4-sulfonamide]	98.8	91.5	101	110	98.2	93.8	0.52 nM and 0.7 nM	–
Cn1cnc(S(=O)(=O)Nc2cccc(C(C3=C(O)CC(CCc4ccccc4)(CCc4ccccc4)OC3=O)C3CC3)c2)c1 (centres unmarked) [Example 62]	76.2	85.2	85.3	78.7	79.7	79.4	0.8 nM	–
N#Cc1ccc(S(=O)(=O)Cc2cccc(C(c3c(O)c4c(oc3=O)CCCCCC4)C3CC3)c2)cc1 (centres unmarked) [Example 11, 3-[cyclopropyl[3-[(4-cyanophenylsulfonyl)methyl]phenyl]methyl]-5,6,7,8,9,10-hexahydro-4-hydroxy-2H-cycloocta[b]pyran-2-one]	78.9	95.3	100	95.1	99.7	104	1.9 nM	–
CCCC1(CCC)CC(O)=C(C(CC)c2cccc(NS(=O)(=O)c3ccc(C#N)cc3)c2)C(=O)O1 (centres unmarked) [Example 46, 4-Cyano-N-[3-[1-(4-hydroxy-2-oxo-6,6-dipropyl-5,6-dihydro-2H-pyran-3-yl)-propyl]-phenyl]-benzenesulfonamide]	85.9	99.2	103	97.6	91.5	74.1	2.92 nM	–
CCCC1(CCC)CC(O)=C(C(CC)c2cccc(NS(=O)(=O)c3cn(C)cn3)c2)C(=O)O1 (single isomer, unassigned) [Example 53, (R or S)-N-[3-[1-(4-hydroxy-2-oxo-6,6-dipropyl-5,6-dihydro-2H-pyran-3-yl)-propyl]-phenyl]-1-methyl-1H-imidazole-4-sulfonamide]	–	–	–	99.6	90.2	84.4	0.9 nM	PROTEASE % INHIB. ([2]; Table I, Dose 0.123 μM): 88.61%; PROTEASE % INHIB. ([2]; Table I, Dose 0.370 μM): 97.74%; PROTEASE % INHIB. ([2]; Table I, Dose 1.100 μM): 97.95%
